The text below walks through data of PubChem BioAssay (NCI).

Assay in all cases: NCI-60 cell line screen, 48 h
In experiment [1] the test system is IGROV1 ovarian.
Experiment [2] deals with SK-MEL-28 melanoma.
Experiment [3] deals with SK-OV-3 ovarian.
The test system of experiment [4] is A549 NSCLC.
Experiment [5] relates to T-47D breast.
For experiment [6], the system named is UACC-62 melanoma.
Experiment [7] deals with NCI-H23 lung.
Experiment [8] concerns UO-31 renal.
The subject of experiment [9] is OVCAR-3 ovarian.
The test system of experiment [10] is HCT-15 colon.

The structures appear in SMILES notation. Values joined by “and” are separate entries in the source; they are usually repeats but may differ in a detail not shown here. Identical values can stand only once.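 Values below derive from 48-hour exposures of cells grown in 96-well plates, with endpoints linearly interpolated between the two concentrations bracketing the appropriate inhibition level. At the GI50, growth is halved. TGI: concentration producing complete growth inhibition.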

As to `Cc1cc(S(=O)(=O)Nc2nnc(-c3ccccc3)c(-c3ccccc3)n2)c(SCC(N)=O)cc1Cl`, the GI50 was over 100 µM in [1]; 72.8 µM in experiment [2]; over 100 µM in experiment [3]; over 100 µM in [4]; 34.5 µM in experiment [5]; 24.6 µM in [6]. The GI50 in [7] was 78.7 µM; in experiment [8] it was over 100 µM; in experiment [9] it was 19.6 µM; in experiment [10], over 100 µM. Besides, the TGI in [1] was over 100 µM; in experiment [2] it was over 100 µM; in [3], over 100 µM; in experiment [4], over 100 µM; in [5], over 100 µM; in experiment [6] it was 56.2 µM. In addition, the TGI is over 100 µM in experiment [7], over 100 µM in experiment [8], 42.8 µM in [9] and over 100 µM in experiment [10].

`COc1cccc2c1C(=O)c1c(O)c3c(c(O)c1C2=O)C[C@@](O)(C(C)=O)C[C@@H]3OC1OC(C)C(O)C(N)C1Br` (some centres not stated): the TGI was 1.41 µM and 9.05 µM in experiment [1]; 1.28 µM and 1.32 µM in experiment [2]; 0.288 µM and 0.323 µM in experiment [3]; 0.262 µM in [4]; 0.74 µM in experiment [5]; 0.892 µM and 0.424 µM in [6]. In addition, the TGI is 0.206 µM and 0.177 µM in [7]; 0.329 µM and 0.59 µM in [8]; 0.364 µM and 0.584 µM in experiment [9]; 0.78 µM in experiment [10]. The GI50 is 0.22 µM in experiment [2]; 0.0314 µM in [3]; 0.0459 µM in [6]; 0.0174 µM in experiment [7]; 0.134 µM in experiment [8]; 0.178 µM in experiment [9].

For `COc1cc2c(c(OC)c1OC)-c1ccc(OC)c(=O)cc1[C@@H](NC(=O)c1ccccc1)CC2`, the GI50 in [1] is 0.00587 µM; in experiment [2], under 0.003 µM; in experiment [3], under 0.003 µM; in [4], under 0.003 µM; in experiment [5] it was over 30 µM; in experiment [6], under 0.003 µM. The GI50 is over 30 µM in experiment [8], under 0.003 µM in experiment [9] and 0.0444 µM in [10]. The TGI in experiment [1] was 30 µM and 55.2 µM; in experiment [2], 30 µM and > 100 µM; in experiment [4], 30 µM and > 100 µM; in experiment [5], over 100 µM; in [6] it was 30 µM and 59.7 µM; in experiment [7] it was 2.32 µM. In addition, the TGI in [8] is over 100 µM.

Take `COc1cc(/C=C/c2cc(/C=C/c3ccc(O)c(OC)c3)n(C(=O)Nc3ccc(F)c(Cl)c3)n2)ccc1O`: the GI50 is 0.47 µM in experiment [1]; 0.52 µM in experiment [2]; 0.324 µM in experiment [3]; 0.387 µM in [4]; 0.634 µM in [5]; 0.452 µM in experiment [6]. Also, the GI50 in [7] was 0.147 µM; in experiment [8], 0.248 µM; in experiment [9], 0.263 µM; in [10], 0.25 µM. Further, the TGI stood at 3.59 µM in experiment [1]; 3.92 µM in experiment [2]; 1.43 µM in [3]; 3.47 µM in [4]; 2.32 µM in [5]; 1.99 µM in experiment [6]. Besides, the TGI in [7] amounted to 1.46 µM; in [8], 1.82 µM; in [9] it was 0.837 µM; in experiment [10], 3.34 µM.

As to `NS(=O)(=O)c1ccc(NC2(C(=O)O)CCCC2)cc1`, the TGI in [1], in experiment [2], in experiment [3], in [4], in experiment [5] and in [6] was over 100 µM each time. Moreover, the TGI in experiment [7], in [8], in experiment [9] and in experiment [10] was over 100 µM in each case.

For the compound `Clc1ccc(C2=Nn3c(COc4ccccc4Cl)nnc3SC2)c(Cl)c1`, the GI50 in [1] was 33.6 µM; in experiment [2] it was 17 µM; in experiment [3] it was 28.1 µM; in experiment [4] it was 23.6 µM; in [5], 14 µM; in [6], 15.1 µM. The GI50 in experiment [7] is 15.5 µM; in [8], 31.2 µM; in experiment [9], 12.9 µM; in experiment [10], 54.6 µM. Also, the TGI in [1] was over 100 µM; in experiment [2], 53.9 µM; in experiment [3], 86.3 µM; in experiment [4], over 100 µM; in experiment [5] it was 51.5 µM; in experiment [6], 35.5 µM. The TGI in experiment [7] was 39.6 µM; in experiment [8] it was over 100 µM; in experiment [9] it was 29.2 µM; in experiment [10], over 100 µM.

Regarding `COc1ccc(Cn2cc3c(c2-c2ccccc2)CC(C)(C)c2cnoc2-3)cc1`, the GI50 in experiment [1] is 2.3 µM; in experiment [2], 6.86 µM; in experiment [3], 4.09 µM; in experiment [4], 3.17 µM; in experiment [5] it was 2.51 µM; in [6], 0.958 µM. Also, the GI50 is 2.29 µM in experiment [7], 3.08 µM in experiment [8], 0.662 µM in [9] and 1.02 µM in experiment [10]. Further, the TGI in experiment [1], in [2], in [3], in [4], in [5] and in experiment [6] was over 100 µM throughout. The TGI in experiment [7] was over 100 µM; in [8] it was over 100 µM; in [9], 3.28 µM; in [10] it was over 100 µM.

Consider `C=C1C(=O)O[C@@H]2/C=C(\C)CC/C=C(/COC(C)=O)C[C@@H](OC(C)=O)[C@@H]12`, for which the TGI in experiment [1] was 28.1 µM; in [2], 23.5 µM; in experiment [3] it was over 100 µM; in experiment [4], over 100 µM; in experiment [5] it was 26.6 µM; in experiment [6], 26.4 µM. Besides, the TGI in experiment [7] amounted to 32.5 µM; in experiment [8] it was 22.3 µM; in experiment [9] it was 14.2 µM; in experiment [10] it was 12.4 µM.

On to `N=C1C(c2nc3ccccc3s2)=C(O)CN1c1cc(C(F)(F)F)ccc1Cl`, for which the GI50 is 9.64 µM in experiment [1]; 69 µM in experiment [2]; 51.4 µM in [3]; 21.1 µM in experiment [4]; 48.1 µM in experiment [5]; 5.06 µM in experiment [6]. Also, the GI50 in experiment [7] was 26.3 µM; in experiment [8] it was 2.63 µM; in experiment [9], 4.47 µM; in experiment [10] it was 3.44 µM. Besides, the TGI in experiment [1] is over 100 µM; in experiment [2], over 100 µM; in [3] it was over 100 µM; in experiment [4] it was over 100 µM; in experiment [5] it was over 100 µM; in [6], 42.7 µM. Moreover, the TGI in experiment [7] was over 100 µM; in [8], 6.18 µM; in [9], 40.4 µM; in experiment [10] it was over 100 µM.

Regarding `COc1cc(-c2ccc3c(c2)NC(=O)/C3=C\c2ccc[nH]2)ccc1O`, the GI50 in experiment [1] is 0.0697 µM; in experiment [2], 2.19 µM; in experiment [3], 0.0341 µM; in experiment [4], 0.0374 µM; in experiment [5], 0.219 µM; in [6] it was 0.1 µM. In addition, the GI50 is 0.0662 µM in [7], 0.0354 µM in [8], 0.0176 µM in [9] and 0.0228 µM in [10]. The TGI in [1], in experiment [2], in experiment [3], in [4], in [5] and in [6] was over 50 µM each time. Moreover, the TGI in experiment [7], in experiment [8], in experiment [9] and in experiment [10] was over 50 µM throughout.

Take `O=C(N/N=C/c1ccc(Cl)cc1)c1ccc(C(F)(F)F)nc1Nc1cccc(C(F)(F)F)c1`: the GI50 is 2.4 µM in experiment [1]; 2.54 µM in experiment [2]; 1.85 µM in experiment [3]; 2.89 µM in experiment [4]; 2.06 µM in [5]; 2.39 µM in experiment [6]. Besides, the GI50 in experiment [7] is 2.31 µM; in experiment [8] it was 1.66 µM; in experiment [9], 1.11 µM; in experiment [10], 0.855 µM. The TGI in experiment [1] was 10.5 µM; in experiment [2] it was 10.3 µM; in experiment [3] it was 7.54 µM; in [4], 9.61 µM; in experiment [5] it was 10.7 µM; in experiment [6] it was 6.15 µM. For the same compound, the TGI in [7] was 8.74 µM; in experiment [8], 5.42 µM; in experiment [9], 6.9 µM; in [10] it was 12.2 µM.

In the case of `CC(=O)CSCc1ccccn1`, the TGI in experiment [1], in experiment [2], in [3], in experiment [4], in experiment [5] and in [6] was over 100 µM each time. The TGI in [7], in experiment [8], in experiment [9] and in experiment [10] was over 100 µM in each case.

For `N#C/C(=C1C=C(Br)/C(=N\O)C=C\1Cl)c1cccc2ccccc12`, the TGI in experiment [1] was over 100 µM; in [2], 21.9 µM; in experiment [3], 20.3 µM; in experiment [4], 26 µM; in experiment [5], 12.9 µM; in experiment [6], 15.8 µM. For the same compound, the TGI in experiment [7] came out at 36.3 µM; in [8], 24.1 µM; in experiment [9] it was 9.39 µM; in experiment [10], 25.6 µM.

On to `COc1cc2ncnc(Nc3ccc(C)c(O)c3)c2cc1OC`, for which the GI50 in experiment [1] is 1.98 µM; in experiment [2], over 25 µM; in experiment [3], 1.32 µM; in experiment [4] it was 18.1 µM; in experiment [5] it was 7.79 µM; in experiment [6] it was over 25 µM. For the same compound, the GI50 is over 25 µM in experiment [7], 1.59 µM in experiment [8], 8.94 µM in experiment [9] and 14.1 µM in [10]. Besides, the TGI in [1] was over 12 µM; in [2], over 25 µM; in experiment [3], over 19.9 µM; in experiment [4], over 25 µM; in [5], over 25 µM; in [6], over 25 µM. Moreover, the TGI is over 25 µM in [7], over 17.2 µM in experiment [8], over 25 µM in experiment [9] and over 25 µM in experiment [10].

Take `Cc1cccc(N2CCN(C(=S)c3ccc4c(c3)OCO4)CC2)c1`: the GI50 was 1.21 µM in [1]; 2.19 µM in [2]; 2.19 µM in experiment [3]; 1.07 µM in experiment [4]; 0.934 µM in [5]; 0.64 µM in [6]. Also, the GI50 in [7] is 7.07 µM; in experiment [8], 14.4 µM; in experiment [9] it was 0.359 µM; in [10], 0.625 µM. Also, the TGI in experiment [1] is over 100 µM; in [2], over 100 µM; in experiment [3], 83.3 µM; in experiment [4] it was over 100 µM; in [5], over 100 µM; in experiment [6] it was over 100 µM. For the same compound, the TGI in experiment [7] is over 100 µM; in [8], over 100 µM; in experiment [9] it was 2.87 µM; in [10], over 100 µM.

`CCCCC(O)(c1ccc(Cl)cc1)C(CN1CCOCC1)c1ccc(Cl)cc1` (configuration not stated): the GI50 in experiment [1] was 8.68 µM; in experiment [2] it was 15.9 µM; in experiment [3], 15.2 µM; in experiment [4] it was 12.5 µM; in experiment [5], 11.3 µM; in experiment [6], 12.4 µM. The GI50 in experiment [7] is 10.6 µM; in [8], 12.2 µM; in [9], 14.5 µM; in experiment [10] it was 11.2 µM. Moreover, the TGI in experiment [1] worked out at 33 µM; in experiment [2], 33.9 µM; in experiment [3] it was 47.1 µM; in [4] it was 30.9 µM; in experiment [5], 25 µM; in experiment [6], 28.7 µM. The TGI in experiment [7] was 28.7 µM; in [8], 26.2 µM; in experiment [9] it was 28 µM; in experiment [10] it was 26.2 µM.
